What was measured:
[1] = Cytotoxicity against ddY mouse macrophages after 20 hrs by MTT assay; format: cell-based; details: macrophage
Macrophage [2] = experiment: Inhibition of LPS-induced NO production in ddY mouse peritoneal macrophages at 30 uM by Griess reagent method; format: functional
Macrophage [3] = experiment: Inhibition of LPS-induced NO production in ddY mouse peritoneal macrophages at 100 uM by Griess reagent method; format: functional
Macrophage [4] = experiment: Inhibition of LPS-induced NO production in ddY mouse peritoneal macrophages at 1 uM by Griess reagent method; format: functional
Macrophage [5] = experiment: Inhibition of LPS-induced NO production in ddY mouse peritoneal macrophages at 10 uM by Griess reagent method; format: functional
Macrophage [6] = experiment: Inhibition of LPS-induced NO production in ddY mouse peritoneal macrophages by Griess reagent method; format: functional, cell-based
Macrophage [7] = experiment: Inhibition of LPS-induced NO production in ddY mouse peritoneal macrophages at 3 uM by Griess reagent method; format: functional

Structure (SMILES) | IC50 (Macrophage [6]) [µM] | Activity [1] | inhibition at 30 µM (Macrophage [2]) [%] | inhibition at 100 µM (Macrophage [3]) [%] | inhibition at 1 µM (Macrophage [4]) [%] | inhibition at 10 µM (Macrophage [5]) [%] | inhibition at 3 µM (Macrophage [7]) [%]
Oc1ccc2cc1Oc1ccc(cc1)CC[C@H](O)CCCC2 [ACEROGENIN A] | 74 | Non-toxic | 22.2 | 61.4 | 6.7 | 11.6 | 5.8
Oc1ccc2cc1Oc1ccc(cc1)CCCC[C@H](O)CC2 [ACEROGENIN B] | 88 | Non-toxic | 17.6 | 54.1 | 1.9 | -0.2 | -0.5

Further lines, with some results ahead:

IC50 (Macrophage [6]) [µM] | Structure (SMILES) | Activity [1] | inhibition at 30 µM (Macrophage [2]) [%] | inhibition at 100 µM (Macrophage [3]) [%] | inhibition at 1 µM (Macrophage [4]) [%] | inhibition at 10 µM (Macrophage [5]) [%] | inhibition at 3 µM (Macrophage [7]) [%]
73 | Oc1ccc(CCCC[C@@H](O)CCc2ccc(O)cc2)cc1 | Non-toxic | 10.7 | 67.2 | -1.3 | -1.1 | 1.3
24 | O=C1CCCCc2ccc(O)c(c2)-c2cc(ccc2O)CC1 [ACEROGENIN E] | Non-toxic | 59.4 | 81.2 | 0.1 | 13.6 | 3.3
25 | Oc1ccc2cc1-c1cc(ccc1O)CCC(O)CCCC2 (stereo not given) [ACEROGENIN K] | Non-toxic | 56.6 | 91.3 | 6.6 | 24.3 | 2.1
